In patent US20250268903A1, “RXFP1 AGONISTS” (BRISTOL-MYERS SQUIBB COMPANY, priority 2021, published 2025) one finds EC50 data, which are given here for 21 compounds.

This assay has as its target T1, human RXFP1 (Homo sapiens, UniProt Q9HBX9).
T1 construct: expressed in transfected cells
T1 sequence (Q9HBX9 1-757): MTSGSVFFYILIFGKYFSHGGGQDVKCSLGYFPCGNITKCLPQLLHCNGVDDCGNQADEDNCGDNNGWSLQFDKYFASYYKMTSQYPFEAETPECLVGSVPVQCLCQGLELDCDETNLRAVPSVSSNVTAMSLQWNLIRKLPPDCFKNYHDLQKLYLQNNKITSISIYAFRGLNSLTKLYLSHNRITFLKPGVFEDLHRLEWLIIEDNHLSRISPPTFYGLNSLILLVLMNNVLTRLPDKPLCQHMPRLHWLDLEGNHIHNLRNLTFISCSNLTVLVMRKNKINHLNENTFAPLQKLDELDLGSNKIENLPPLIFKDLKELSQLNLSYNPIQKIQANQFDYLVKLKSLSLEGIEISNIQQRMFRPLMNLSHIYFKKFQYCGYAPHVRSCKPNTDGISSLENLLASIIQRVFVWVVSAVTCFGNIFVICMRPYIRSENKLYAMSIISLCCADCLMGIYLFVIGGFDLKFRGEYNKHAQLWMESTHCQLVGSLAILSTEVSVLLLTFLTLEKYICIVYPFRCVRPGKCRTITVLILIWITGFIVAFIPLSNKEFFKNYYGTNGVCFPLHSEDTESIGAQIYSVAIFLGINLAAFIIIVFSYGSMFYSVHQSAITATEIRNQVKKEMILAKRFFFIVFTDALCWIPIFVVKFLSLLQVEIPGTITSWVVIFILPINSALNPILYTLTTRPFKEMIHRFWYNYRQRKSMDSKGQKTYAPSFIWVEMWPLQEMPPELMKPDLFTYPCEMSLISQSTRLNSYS
Description: hRXFP1 HEK293 cAMP assay (HTRF). Type of assay: cell-based. Conditions: HEK293 cells stably expressing human RXFP1, 30 min at room temperature. The procedure, abridged:
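Intracellular cAMP was read by HTRF, with potency fitted to a 4-parameter logistic curve. Compound exposure (0.010 nM–50 μM final, 2% DMSO) lasted 30 min at room temperature. Cells were hRXFP1-HEK293 at 1500 per well in IBMX-containing (0.5 mM) HEPES-buffered HBSS.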

In turn, `COc1ccc(C2CC3CC(CO)CC32)cc1C(=O)N[C@H]1[C@@H](C(=O)Nc2ccc(F)c(C(F)(F)F)c2)[C@H]2CC[C@@H]1/C2=C\C1CC1` (single isomer, unassigned) [Example 349] registered an EC50 of 60.9 nM. The compound `COc1ccc(C2CC3CC(O)CC32)cc1C(=O)N[C@H]1[C@@H](C(=O)Nc2ccc(F)c(C(F)(F)F)c2)[C@H]2CC[C@@H]1/C2=C\C1CC1` (single isomer, unassigned) [Example 341] registered an EC50 of 126 nM. For `COc1ccc(C2CC(C(C)(C)O)C2)cc1C(=O)N[C@H]1[C@@H](C(=O)Nc2ccc(F)c(C(F)(F)F)c2)[C@H]2CC[C@@H]1/C2=C\C1CCCC1` (stereo partly drawn) [Example 363, (1R,2S,3R,4R,Z)-7-(cyclopentyl-methylene)-N-(4-fluoro-3-(trifluoromethyl)phenyl)-3-(5-(3-(2-hydroxypropan-2-yl)cyclobutyl)-2-methoxybenzamido) bicyclo[2.2.1] heptane-2-carboxamide] the value was 3.9 nM. The compound `COc1ccc(COCC2CC2(F)F)cc1C(=O)N[C@@H]1C2CCC(/C2=C/C2CC2)[C@@H]1C(=O)Nc1ccc(F)c(C(F)(F)F)c1` (stereo partly drawn) [Example 15, (2S,3R,7Z)-7-(cyclopropylmethyli-dene)-3-(5-{[(2,2-difluorocyclopropyl)methoxy]methyl}-2-methoxybenzamido)-N-[4-fluoro-3-(trifluoromethyl)phe-nyl]bicyclo[2.2.1]hept-ane-2-carboxamide] returned a half-maximal effective concentration (EC50) of 36 nM. For “(1R,4R,7Z)-N-14- fluoro-3- (trifluoromethyl) phenyl]-3-[5-(3- hydroxy-3- methylbutyl)-2- methoxybenzamido 1-7-[(oxan-3- yl)methylidene] bicyclo[2.2.1] heptane- 2-carboxamide [Example 266]” the value was 186 nM. For “(1R,4R,7Z)-N-[4- fluoro-3- (trifluoromethyl) phenyl]-3-[5-(3- hydroxypropyl)-2- methoxybenzamido]- 7-[(oxan-3- yl)methylidene] bicyclo[2.2.1]heptane- 2-carboxamide [Example 263]”, it took 318 nM to reach a half-maximal effect (EC50). For `COCCCc1ccc(OC)c(C(=O)NC2C3CCC(/C3=C/C(F)(F)F)[C@@H]2C(=O)Nc2ccc(F)c(C(F)(F)F)c2)c1` (stereo partly drawn) [Example 189, (2S,3R,7Z)-N-[4-fluoro-3-(trifluoromethyl)phe-nyl]-3-[2-methoxy-5-(3-methoxypropyl)benz-amido]-7-(2,2,2-trifluoroethylidene)bi-cyclo[2.2.1]heptane-2-carboxamide], the response was half-maximal at 494 nM (EC50). `COc1ccc(C(=O)N2CCC(S(C)(=O)=O)C2)cc1C(=O)N[C@H]1[C@@H](C(=O)Nc2ccc(F)c(C(F)(F)F)c2)[C@H]2CC[C@@H]1/C2=C\C1CC1` (stereo partly drawn) [Example 252, (1R,2S,3R,4R,7Z)-7-(cyclopropyl-methylidene)-N-[4-fluoro-(trifluoromethyl)phenyl]-3-[5-(3-methanesulfonyl-pyrrolidine-1-carbonyl)-2-methoxybenzamido] bicyclo[2.2.1] heptane-2-carboxamide]: the EC50 was 4.16 nM. `COc1ccc(/C=C/C(=O)NCC(F)(F)F)cc1C(=O)NC1C2CCC(/C2=C/C(F)(F)F)[C@@H]1C(=O)Nc1ccc(F)c(C(F)(F)F)c1` (stereo partly drawn) [Example 136, (2S,3R,7Z)-N-[4-fluoro-3-(trifluoromethyl)phe-nyl]-3-{2-methoxy-5-[(1E)-2-[(2,2,2-trifluoroethyl)carba-moyl]eth-1-en-1-yl]benzamido}-7-(2,2,2-trifluoroethylidene)bi-cyclo[2.2.1]heptane-2-carboxamide] returned a 50% effective concentration (EC50) of 776 nM.

Turning to `COc1ccc(COC[C@@H]2C[C@@H]2C(=O)O)cc1C(=O)N[C@H]1[C@@H](C(=O)Nc2ccc(F)c(C(F)(F)F)c2)[C@H]2CC[C@@H]1/C2=C\C1CC1` [Example 292, (1S,2R)-2-{[(3-{[(1R.2R,3S,4R,7Z)-7-(cyclopropyl-methylidene)-3-{[4-fluoro-3-(trifluoromethyl)phenyl]carbamoyl}bicyclo[2.2.1]heptan-2-yl]carbamoyl}-4-methoxyphenyl)methoxy]methyl} cyclopropane-1-carboxylic acid], the half-maximal effective concentration (EC50) was found to be 28.4 nM.

The compound `COc1ccc(CCC(C)(C)O)cc1C(=O)NC1C2CCC(/C2=C/C2CCCC2)[C@@H]1C(=O)Nc1ccc(F)c(C(F)(F)F)c1` (stereo partly drawn) [Example 168, (7Z)-7-(cyclopentylmethyli-dene)-N-[4-fluoro-3-(trifluoromethyl)phe-nyl]-3-[5-(3-hydroxy-3-methylbutyl)-2-methoxybenzamido] bicyclo[2.2.1]heptane-2-carboxamide] yielded a half-maximal effective concentration (EC50) of 8 nM. `COc1ccc(C2CCCC(C(=O)O)C2)cc1C(=O)NC1C2CCC(/C2=C/C(F)(F)F)[C@@H]1C(=O)Nc1ccc(F)c(C(F)(F)F)c1` (stereo partly drawn) [Example 144, 3-(3-{[(2R,3S,7Z)-3-{[4-fluoro-3-(trifluoromethyl)phe-nyl]carbamoyl}-7-(2,2,2-trifluoroethylidene)bi-cyclo[2.2.1]heptan-2-yl]carbamoyl}-4-methoxyphenyl)cyclo-hexane-1-carboxylic acid] returned an EC50 of 134 nM. The compound `COc1ccc(C2CCC2)cc1C(=O)N[C@H]1[C@@H](C(=O)Nc2ccc(F)c(C(F)(F)F)c2)[C@H]2CC[C@@H]1/C2=C\C(F)(F)F` [Example 176, (1R,2S,3R,4R,Z)-3-(5-cyclobutyl-2-methoxybenzamido)-N-(4-fluoro-3-(trifluoromethyl)phenyl)-7-(2,2,2-trifluoroethylidene) bicyclo[2.2.1]heptane-2-carboxamide] displayed a concentration for a half-maximal effect (EC50) of 738 nM. `COc1ccc(CC2CCOCC2)cc1C(=O)NC1C2CCC(/C2=C/C2CCC2)[C@@H]1C(=O)Nc1ccc(F)c(C(F)(F)F)c1` (stereo partly drawn) [Example 194, (7Z)-7-(cyclobutylmethyli-dene)-N-[4-fluoro-3-(trifluoromethyl)phe-nyl]-3-{2-methoxy-5-[(oxan-4-yl)methyl]benzamido} bicyclo[2.2.1]hept-ane-2-carboxamide] yielded an EC50 of 76 nM. With `COc1cc(F)c(O[C@H]2CC[C@H](C(=O)O)CC2)cc1C(=O)N[C@@H]1C2CCC(/C2=C/C2CC2)[C@@H]1C(=O)Nc1ccc(F)c(C(F)(F)F)c1` (stereo partly drawn) [Example 376, (1R,4r)-4-(5-(((1R,2R,3S,4R,Z)-7-(cyclopropyl-methylene)-3-((4-fluoro-3-(trifluoromethyl)phenyl)carbamoyl)bicyclo[2.2.1]heptan-2-yl)carbamoyl)-2-fluoro-4-methoxyphenoxy) cyclohexane-1-carboxylic acid], the EC50 stood at 120 nM. Turning to `COc1ccc(C(=O)N2CCCC(CO)C2)cc1C(=O)N[C@H]1[C@@H](C(=O)Nc2ccc(F)c(C(F)(F)F)c2)[C@H]2CC[C@@H]1/C2=C\C1CC1` (stereo partly drawn) [Example 235, (1R,2S,3R,4R,7Z)-7-(cyclopropylmethyl-idene)-N-[4-fluoro-3-(trifluoromethyl)phenyl]-3-{5-[3-(hydroxymethyl)piperidine-1-carbonyl]-2-methoxybenzamido} bicyclo[2.2.1] heptane-2-carboxamide], the EC50 amounted to 130 nM. As to `COc1ccc(/C=C/C(=O)NCCO)cc1C(=O)N[C@@H]1C2CCC(/C2=C/C(F)(F)F)[C@@H]1C(=O)Nc1ccc(F)c(C(F)(F)F)c1` (stereo partly drawn) [Example 133, (2S,3R,7Z)-N-[4-fluoro-3-(trifluoromethyl)phe-nyl]-3-{5-[(1E)-2-[(2-hydroxyethyl)carba-moyl]eth-1-en-1-yl]-2-methoxybenzamido}-7-(2,2,2-trifluoroethylidene)bi-cyclo[2.2.1]heptane-2-carboxamide], the EC50 worked out at 384 nM.

As to `COc1ccc(S(=O)(=O)N2CCN[C@H](CO)C2)cc1C(=O)N[C@H]1[C@@H](C(=O)Nc2ccc(F)c(C(F)(F)F)c2)[C@H]2CC[C@@H]1/C2=C\C(F)(F)F` [Example 212, (1R,2S,3R,4R,7Z)-N-[4-fluoro-3-(trifluoromethyl)phenyl]-3-(5-{[(3S)-3-(hydroxymethyl)piperazin-1-yl]sulfonyl}-2-methoxybenzamido)-7-(2,2,2-trifluoroethylidene) bicyclo[2.2.1] heptane-2-carboxamide], the concentration for a half-maximal effect (EC50) stood at 589 nM. As for `COc1ccc(C2CCCC(OC(=O)Nc3ccccc3)C2)cc1C(=O)N[C@@H]1C2CCC(/C2=C/C(F)(F)F)[C@@H]1C(=O)Nc1ccc(F)c(C(F)(F)F)c1` (single isomer, unassigned) [Example 41], a half-maximal effect (EC50) was put at 201 nM. On to “(7Z)-7-(4,4- dimethylpentylidene)- N-[4-fluoro-3- (trifluoromethyl)phe- nyl]-3-[5-(3- hydroxypropyl)-2- methoxybenzamido] bicyclo[2.2.1]heptane- 2-carboxamide [Example 164]”, for which the concentration giving a half-maximal response (EC50) came to 67 nM.

`COC(=O)[C@@H]1CCN(C(=O)Cc2ccc(OC)c(C(=O)NC3C(C(=O)Nc4ccc(F)c(C(F)(F)F)c4)[C@H]4CC[C@@H]3/C4=C\C3CC3)c2)C1` (stereo partly drawn) [Example 356] yielded an EC50 of 4020 nM.

The term EC50 denotes the concentration giving half of the maximal effect. Higher therefore signals a need for much substance.
